What all share (assay type): cell-based
For data set [1], the system named is CA9-22 cells. As to the kind of experiment: MTT cell activity of CA9-22 cells co-cultured with acetaldehyde (cell damage dose finding). The note with it: for Cell activity: 1 day, MTT, T/NT vs untreated = 100%. How it is done: • Experimental materials: acetaldehyde, DMEM medium. • Experimental sample solutions: 17.7 M acetaldehyde was diluted with DMEM medium to prepare experimental sample solutions with different final concentrations, and the concentrations are shown in Table 2. • Methods: After CA9-22 cells were co-cultured with different experimental sample solutions for 1 day, the experimental sample solutions were removed and MTT was added. After 3 hours, the supernatant was carefully aspirated and dimethyl sulfoxide (DMSO) was added. The absorbance of each well at 550 nm was detected by a microplate reader. The untreated well was used as control, the absorbance of the sample well was defined as T, the absorbance of the untreated well was defined as NT, NT was taken as 100%, and the ratio of T/NT of the sample well was taken as the cell activity.

In data set [2] the test system is CA9-22 cells. Put plainly: MTT cell activity of CA9-22 cells co-cultured with acetaldehyde plus ergothioneine (inhibition of acetaldehyde cell damage). To be noted: for Cell activity: 1 day, MTT.
Source text: • Experimental materials: acetaldehyde, ergothioneine and DMEM medium. • Experimental sample solutions: ergothioneine powder and 17.7M acetaldehyde were respectively diluted with DMEM medium, and then the two solutions were mixed in different ratios to prepare experimental sample solutions with different final concentrations, and the concentrations are shown in Table 3. • Methods: After CA9-22 cells were co-cultured with different experimental sample solutions for 1 day, the experimental sample solutions were removed and MTT was added. After 3 hours, the supernatant was carefully aspirated and dimethyl sulfoxide (DMSO) was added. The absorbance of each well at 550 nm was detected by a microplate reader. The untreated wells was used as control, the absorbance of the sample wells was defined as T, the absorbance of the untreated well was defined as NT, NT was taken as 100%, and the ratio of T/NT of the sample well was taken as the cell activity. On the basis of meeting the requirements of significant difference, the greater the cell activity %, the better the effect of inhibiting cell damage caused by acetaldehyde.
Data set [3] relates to CA9-22 cells. As to the kind of experiment: MTT cell activity of CA9-22 cells co-cultured with ergothioneine alone (cytotoxicity). The note with it: for Cell activity: 1 day, MTT, T/NT vs untreated = 100%. The method, then:
• Experimental materials: ergothioneine, DMEM medium. • Experimental sample solutions: ergothioneine powder was dissolved in DMEM medium to prepare experimental sample solutions with different final concentrations, and the concentrations are shown in Table 1. • Methods: CA9-22 cells purchased from ATCC were co-cultured with different experimental sample solutions for 1 day, then the experimental sample solutions were removed and MTT was added. After 3 hours, the supernatant was carefully aspirated and dimethyl sulfoxide (DMSO) was added. The absorbance of each well at 550 nm was detected by a microplate reader. The untreated well was used as control, the absorbance of the sample well was defined as T, the absorbance of the untreated well was defined as NT, NT was taken as 100%, and the ratio of T/NT of the sample well was taken as the cell activity.

Counter-ions that a name gives are not always drawn.

As for `CC=O` [Acetaldehyde, acetaldehyde], the Cell activity with CA9-22 cells [1] (acetaldehyde 0.0001M) was determined as 96%; in the data set with CA9-22 cells [1] (acetaldehyde 0.001M), 93%; in the data set with CA9-22 cells [1] (acetaldehyde 0.005M), 93%; in the data set on CA9-22 cells [1] (acetaldehyde 0.01M), 89%; in the data set with CA9-22 cells [1] (acetaldehyde 0.02M), 70%; with CA9-22 cells [2] (acetaldehyde 0.02 M alone, no ergothioneine (sample 2)), 70%. Further, in the data set on CA9-22 cells [2] (acetaldehyde 0.02 M alone, no ergothioneine (sample 2), listed as acetaldehyde), the Cell activity is listed as 70%. Further, the “Cell damage after treating cells” value in the data set with CA9-22 cells [1] (different concentrations of acetaldehyde, more obvious with increasing concentration) is recorded as “will cause cell damage”.
With `C[N+](C)(C)[C@@H](Cc1c[nH]c(=S)[nH]1)C(=O)[O-]` [Ergothioneine, 2-mercaptohistidine trimethyl internal salt], the Cytotoxicity result in the data set with CA9-22 cells [3] (0.1-12.5 μM, test conditions of Example 1) is listed as “no cytotoxicity”. Moreover, the Cell activity with CA9-22 cells [3] (ergothioneine 0.1 μM) is reported as 101%; in the data set with CA9-22 cells [3] (ergothioneine 0.5 μM), 100%; in the data set with CA9-22 cells [3] (ergothioneine 2.5 μM) it was 107%; in the data set on CA9-22 cells [3] (ergothioneine 12.5 μM), 106%; in the data set on CA9-22 cells [2] (acetaldehyde 0.02 M + ergothioneine 0.01 μM (sample 3)) it was 71%; with CA9-22 cells [2] (acetaldehyde 0.02 M + ergothioneine 0.05 μM (sample 4)), 76%. Besides, the Cell activity with CA9-22 cells [2] (acetaldehyde 0.02 M + ergothioneine 0.1 μM (sample 5)) worked out at 81%; in the data set with CA9-22 cells [2] (acetaldehyde 0.02 M + ergothioneine 0.5 μM (sample 6)), 83%; with CA9-22 cells [2] (acetaldehyde 0.02 M + ergothioneine 2.5 μM (sample 7)) it was 83%; in the data set on CA9-22 cells [2] (acetaldehyde 0.02 M + ergothioneine 12.5 μM (sample 8)), 85%. Besides, the “Effect on cell damage caused by acetaldehyde” value in the data set with CA9-22 cells [2] (acetaldehyde 0.02 M, ergothioneine added) was “can reduce the cell damage caused by acetaldehyde”.

(Values after patent US20260216140A1, “USE OF ERGOTHIONEINE IN PREPARATION OF PRODUCT FOR PREVENTING OR INHIBITING CELL DAMAGE CAUSED BY ACETALDEHYDE” (BLOOMAGE BIOTECHNOLOGY CORPORATION LIMITED, priority 2022, published 2026).)
